Assay results published in article PMC11589570, “Critical assessment of LC3/GABARAP ligands used for degrader development and ligandability of LC3/GABARAP binding pockets” (Nature Communications, 2024).
Like-named read-outs stand apart in the source and are kept apart here.

Molecular target: GABARAP (Homo sapiens, UniProt O95166)
Assay type: binding
Set-up: CSP induced: unit not given here
Details: for CSP: GABARAP:TH152 molar ratio 1:2

GABARAP, sequence (O95166 1-116): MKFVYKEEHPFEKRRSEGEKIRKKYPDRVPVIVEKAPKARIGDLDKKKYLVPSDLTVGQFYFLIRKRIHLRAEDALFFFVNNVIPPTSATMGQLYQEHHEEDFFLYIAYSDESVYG

CSP induced (F77 HN resonance, molar ratio TH152:GABARAP 0.125): 0.00585
CSP induced (F77 HN resonance, molar ratio TH152:GABARAP 0.25): 0.01072
CSP induced (F77 HN resonance, molar ratio TH152:GABARAP 0.5): 0.01977
CSP induced (F77 HN resonance, molar ratio TH152:GABARAP 1): 0.04412
CSP induced (F77 HN resonance, molar ratio TH152:GABARAP 2): 0.07555
CSP induced (F77 HN resonance, molar ratio TH152:GABARAP 4): 0.08937
CSP (GABARAP residue A36): 0.025 ppm
CSP (GABARAP residue A39): 0.019 ppm
CSP (GABARAP residue A72): 0.005 ppm
CSP (GABARAP residue A75): 0.00571 ppm
CSP (GABARAP residue A108): 0.038 ppm
CSP (GABARAP residue D27): 0.012 ppm
CSP (GABARAP residue D43): 0.019 ppm
CSP (GABARAP residue D45): 0.052 ppm
CSP (GABARAP residue D54): 0.019 ppm
CSP (GABARAP residue D74): 0.004 ppm
CSP (GABARAP residue D102): 0.027 ppm
CSP (GABARAP residue D111): 0.080 ppm
CSP (GABARAP residue E7, estimated): 0.005 ppm
CSP (GABARAP residue E8): 0.010 ppm
CSP (GABARAP residue E12): 0.005 ppm
CSP (GABARAP residue E17): 0.025 ppm
CSP (GABARAP residue E19): 0.021 ppm
CSP (GABARAP residue E34): 0.056 ppm
CSP (GABARAP residue E73): 0.015 ppm
CSP (GABARAP residue E97): 0.019 ppm
CSP (GABARAP residue E100): 0.010 ppm
CSP (GABARAP residue E101, estimated): 0.015 ppm
CSP (GABARAP residue E112): 0.029 ppm
CSP (GABARAP residue F3): 0.007 ppm
CSP (GABARAP residue F11): 0.00637 ppm
CSP (GABARAP residue F60): 0.060 ppm
CSP (GABARAP residue F62): 0.051 ppm
CSP (GABARAP residue F77): 0.076 ppm
CSP (GABARAP residue F78): 0.035 ppm
CSP (GABARAP residue F79): 0.034 ppm
CSP (GABARAP residue F103): 0.019 ppm
CSP (GABARAP residue F104): 0.027 ppm
CSP (GABARAP residue G18): 0.016 ppm
CSP (GABARAP residue G42): 0.033 ppm
CSP (GABARAP residue G58): 0.028 ppm
CSP (GABARAP residue G116): 0.011 ppm
CSP (GABARAP residue H9, estimated): 0.005 ppm
CSP (GABARAP residue H69): 0.044 ppm
CSP (GABARAP residue H98): 0.018 ppm
CSP (GABARAP residue H99): 0.035 ppm
CSP (GABARAP residue I21): 0.030 ppm
CSP (GABARAP residue I32): 0.077 ppm
CSP (GABARAP residue I41): 0.054 ppm
CSP (GABARAP residue I64): 0.020 ppm
CSP (GABARAP residue I68): 0.084 ppm
CSP (GABARAP residue I107): 0.011 ppm
CSP (GABARAP residue K2): 0.014 ppm
CSP (GABARAP residue K6, estimated): 0.005 ppm
CSP (GABARAP residue K13): 0.013 ppm
CSP (GABARAP residue K20): 0.009 ppm
CSP (GABARAP residue K23): 0.019 ppm
CSP (GABARAP residue K24): 0.039 ppm
CSP (GABARAP residue K35): 0.019 ppm
CSP (GABARAP residue K38): 0.015 ppm
CSP (GABARAP residue K46): 0.079 ppm
CSP (GABARAP residue K47): 0.091 ppm
CSP (GABARAP residue K48): 0.061 ppm
CSP (GABARAP residue K66): 0.014 ppm
CSP (GABARAP residue L44): 0.040 ppm
CSP (GABARAP residue L50): 0.088 ppm
CSP (GABARAP residue L55): 0.088 ppm
CSP (GABARAP residue L63): 0.085 ppm
CSP (GABARAP residue L70): 0.021 ppm
CSP (GABARAP residue L76): 0.043 ppm
CSP (GABARAP residue L105): 0.011 ppm
CSP (GABARAP residue M1): 0.016 ppm
CSP (GABARAP residue N81): 0.019 ppm
CSP (GABARAP residue P10, estimated): 0.005 ppm
CSP (GABARAP residue P26, estimated): 0.080 ppm
CSP (GABARAP residue P30, estimated): 0.060 ppm
CSP (GABARAP residue P37, estimated): 0.020 ppm
CSP (GABARAP residue P52, estimated): 0.030 ppm
CSP (GABARAP residue Q59): 0.033 ppm
CSP (GABARAP residue Q96): 0.025 ppm
CSP (GABARAP residue R14, estimated): 0.005 ppm
CSP (GABARAP residue R15, estimated): 0.005 ppm
CSP (GABARAP residue R22): 0.015 ppm
CSP (GABARAP residue R28): 0.021 ppm
CSP (GABARAP residue R40): 0.023 ppm
CSP (GABARAP residue R65): 0.067 ppm
CSP (GABARAP residue R67): 0.024 ppm
CSP (GABARAP residue R71): 0.007 ppm
CSP (GABARAP residue S16): 0.016 ppm
CSP (GABARAP residue S53): 0.013 ppm
CSP (GABARAP residue S110): 0.015 ppm
CSP (GABARAP residue S113): 0.021 ppm
CSP (GABARAP residue T56): 0.032 ppm
CSP (GABARAP residue V29): 0.058 ppm
CSP (GABARAP residue V31): 0.082 ppm
CSP (GABARAP residue V33): 0.031 ppm
CSP (GABARAP residue V51): 0.069 ppm
CSP (GABARAP residue V57): 0.065 ppm
CSP (GABARAP residue V80): 0.037 ppm
CSP (GABARAP residue V114): 0.00433 ppm
CSP (GABARAP residue Y25): 0.070 ppm
CSP (GABARAP residue Y49): 0.168 ppm
CSP (GABARAP residue Y61): 0.053 ppm
CSP (GABARAP residue Y106): 0.025 ppm
CSP (GABARAP residue Y109): 0.022 ppm
CSP (GABARAP residue Y115): 0.00181 ppm
CSP induced (K46 HN resonance, molar ratio TH152:GABARAP 0.125): 0.0126
CSP induced (K46 HN resonance, molar ratio TH152:GABARAP 0.25): 0.02165
CSP induced (K46 HN resonance, molar ratio TH152:GABARAP 0.5): 0.03932
CSP induced (K46 HN resonance, molar ratio TH152:GABARAP 1): 0.07004
CSP induced (K46 HN resonance, molar ratio TH152:GABARAP 2): 0.07915
CSP induced (K46 HN resonance, molar ratio TH152:GABARAP 4): 0.08104
CSP induced (Y25 HN resonance, molar ratio TH152:GABARAP 0.125): 0.00667
CSP induced (Y25 HN resonance, molar ratio TH152:GABARAP 0.25): 0.01133
CSP induced (Y25 HN resonance, molar ratio TH152:GABARAP 0.5): 0.01934
CSP induced (Y25 HN resonance, molar ratio TH152:GABARAP 1): 0.03193
CSP induced (Y25 HN resonance, molar ratio TH152:GABARAP 2): 0.06979
CSP induced (Y25 HN resonance, molar ratio TH152:GABARAP 4): 0.08466
SMILES: CCCCCCC(Sc1nc(Cl)cc(Nc2nc(-c3ccc(C(=O)O)cc3)cs2)n1)C(=O)O (centres unmarked) [compound 21]
interaction in 2D NMR titration (GABARAP): interacted with TH152 via the LDS binding site
